From PubChem BioAssay AID1982 (Sanford-Burnham Center for Chemical Genomics, 2009)
Active and inactive are the calls of the source. No rule for the calls is given here.

What was measured:
Experiment in all cases: kinase panel binding selectivity, selectivity assay, biochemical, KINOMEscan (AID 1982)
[1] = molecular target: Maternal embryonic leucine zipper kinase (Homo sapiens) (UniProt Q14680); conditions: KINOMEscan 353-kinase binding panel, qPCR; MELK; at 10 µM; hits give low values
[2] = system: PIK3C2B; conditions: KINOMEscan 353-kinase binding panel, qPCR, at 10 µM, hits give low values
[3] = system: DMPK; conditions: KINOMEscan 353-kinase binding panel, qPCR, at 10 µM, hits give low values
[4] = system: TNK1; conditions: KINOMEscan 353-kinase binding panel, qPCR, at 10 µM, hits give low values
[5] = system: BMPR2; conditions: KINOMEscan 353-kinase binding panel, qPCR, at 10 µM, hits give low values
[6] = system: LIMK2; conditions: KINOMEscan 353-kinase binding panel, qPCR, at 10 µM, hits give low values
[7] = molecular target: Protein-tyrosine kinase 6 (Homo sapiens) (UniProt Q13882); conditions: KINOMEscan 353-kinase binding panel, qPCR; PTK6; at 10 µM; hits give low values
Protein-tyrosine kinase 6 (Homo sapiens), sequence (Q13882 whole entry, looked up): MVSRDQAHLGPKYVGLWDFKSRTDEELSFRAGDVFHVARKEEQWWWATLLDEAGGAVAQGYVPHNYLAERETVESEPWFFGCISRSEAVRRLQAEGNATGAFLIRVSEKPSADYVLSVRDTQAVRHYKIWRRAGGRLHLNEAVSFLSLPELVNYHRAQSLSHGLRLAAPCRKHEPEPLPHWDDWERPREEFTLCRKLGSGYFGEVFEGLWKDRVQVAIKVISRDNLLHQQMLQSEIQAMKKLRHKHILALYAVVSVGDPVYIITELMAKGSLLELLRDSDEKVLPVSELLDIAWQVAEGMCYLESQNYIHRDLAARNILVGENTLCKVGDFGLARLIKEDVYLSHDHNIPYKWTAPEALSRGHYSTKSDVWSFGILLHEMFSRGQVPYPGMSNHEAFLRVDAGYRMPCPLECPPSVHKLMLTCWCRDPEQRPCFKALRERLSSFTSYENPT

[8] = system: TGFBR1; conditions: KINOMEscan 353-kinase binding panel, qPCR, at 10 µM, hits give low values
[9] = system: PIK3CA; conditions: KINOMEscan 353-kinase binding panel, qPCR, at 10 µM, hits give low values
[10] = system: SNARK; conditions: KINOMEscan 353-kinase binding panel, qPCR, at 10 µM, hits give low values
[11] = system: TGFBR2; conditions: KINOMEscan 353-kinase binding panel, qPCR, at 10 µM, hits give low values
[12] = system: ZAP70; conditions: KINOMEscan 353-kinase binding panel, qPCR, at 10 µM, hits give low values
[13] = molecular target: Serine/threonine-protein kinase pim-2 (Homo sapiens) (UniProt Q9P1W9); conditions: KINOMEscan 353-kinase binding panel, qPCR; PIM2; at 10 µM; hits give low values
[14] = molecular target: BDNF/NT-3 growth factors receptor (Homo sapiens) (UniProt Q16620); conditions: KINOMEscan 353-kinase binding panel, qPCR; TRKB; at 10 µM; hits give low values
BDNF/NT-3 growth factors receptor (Homo sapiens), sequence (Q16620 whole entry, looked up): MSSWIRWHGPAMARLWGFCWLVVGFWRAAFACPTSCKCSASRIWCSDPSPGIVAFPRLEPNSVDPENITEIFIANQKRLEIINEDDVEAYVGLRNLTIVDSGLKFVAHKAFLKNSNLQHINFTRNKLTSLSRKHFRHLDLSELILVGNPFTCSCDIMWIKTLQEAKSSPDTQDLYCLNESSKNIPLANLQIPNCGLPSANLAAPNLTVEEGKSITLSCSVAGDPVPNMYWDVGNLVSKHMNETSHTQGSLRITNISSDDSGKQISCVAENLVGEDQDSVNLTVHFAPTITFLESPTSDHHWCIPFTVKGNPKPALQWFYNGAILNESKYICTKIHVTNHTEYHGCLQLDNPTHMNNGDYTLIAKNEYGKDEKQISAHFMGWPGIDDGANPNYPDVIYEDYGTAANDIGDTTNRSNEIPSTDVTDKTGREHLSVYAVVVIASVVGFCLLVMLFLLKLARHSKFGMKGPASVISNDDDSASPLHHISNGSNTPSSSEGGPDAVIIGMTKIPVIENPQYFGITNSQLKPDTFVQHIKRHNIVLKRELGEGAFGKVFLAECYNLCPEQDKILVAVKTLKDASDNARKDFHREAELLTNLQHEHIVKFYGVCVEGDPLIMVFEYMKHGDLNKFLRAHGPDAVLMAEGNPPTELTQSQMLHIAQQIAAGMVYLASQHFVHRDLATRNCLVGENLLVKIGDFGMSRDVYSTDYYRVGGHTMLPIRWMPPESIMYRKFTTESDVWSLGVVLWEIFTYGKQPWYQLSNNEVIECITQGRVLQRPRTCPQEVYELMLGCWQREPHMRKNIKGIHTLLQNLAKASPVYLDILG

[15] = molecular target: Wee1-like protein kinase 2 (Homo sapiens) (UniProt P0C1S8); conditions: KINOMEscan 353-kinase binding panel, qPCR; WEE2; at 10 µM; hits give low values
[16] = system: LATS2; conditions: KINOMEscan 353-kinase binding panel, qPCR, at 10 µM, hits give low values
[17] = molecular target: Serine/threonine-protein kinase N2 (Homo sapiens) (UniProt Q16513); conditions: KINOMEscan 353-kinase binding panel, qPCR; PKN2; at 10 µM; hits give low values
Serine/threonine-protein kinase N2 (Homo sapiens), sequence (Q16513 whole entry, looked up): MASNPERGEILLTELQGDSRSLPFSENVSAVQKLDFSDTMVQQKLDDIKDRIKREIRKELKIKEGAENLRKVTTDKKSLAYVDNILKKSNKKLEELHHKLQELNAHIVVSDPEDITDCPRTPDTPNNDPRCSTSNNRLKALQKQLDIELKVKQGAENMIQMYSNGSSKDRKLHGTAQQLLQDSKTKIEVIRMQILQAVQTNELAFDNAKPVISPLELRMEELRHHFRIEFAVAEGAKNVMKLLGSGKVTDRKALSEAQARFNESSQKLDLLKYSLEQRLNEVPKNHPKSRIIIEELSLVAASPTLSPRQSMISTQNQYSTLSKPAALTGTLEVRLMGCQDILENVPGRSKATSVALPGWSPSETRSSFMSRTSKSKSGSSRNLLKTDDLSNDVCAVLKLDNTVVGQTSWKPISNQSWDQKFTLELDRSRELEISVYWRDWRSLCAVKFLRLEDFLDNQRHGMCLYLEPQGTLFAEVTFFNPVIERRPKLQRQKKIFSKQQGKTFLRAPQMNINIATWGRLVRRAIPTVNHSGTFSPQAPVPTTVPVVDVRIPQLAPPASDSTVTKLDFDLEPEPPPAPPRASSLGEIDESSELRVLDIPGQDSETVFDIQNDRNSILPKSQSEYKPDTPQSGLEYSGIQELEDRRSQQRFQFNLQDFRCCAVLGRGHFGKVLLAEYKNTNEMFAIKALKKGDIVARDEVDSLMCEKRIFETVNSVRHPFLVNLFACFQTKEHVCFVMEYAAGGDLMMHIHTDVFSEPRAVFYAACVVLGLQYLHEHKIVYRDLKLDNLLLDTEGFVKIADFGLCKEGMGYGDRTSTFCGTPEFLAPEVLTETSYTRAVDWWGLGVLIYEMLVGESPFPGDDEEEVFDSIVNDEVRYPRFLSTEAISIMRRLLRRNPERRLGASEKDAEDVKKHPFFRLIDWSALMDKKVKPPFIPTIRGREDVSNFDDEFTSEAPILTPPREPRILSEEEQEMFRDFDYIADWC

[18] = molecular target: Mitogen-activated protein kinase 10 (Homo sapiens) (UniProt P53779); conditions: KINOMEscan 353-kinase binding panel, qPCR; JNK3; at 10 µM; hits give low values
[19] = molecular target: Vascular endothelial growth factor receptor 1 (Homo sapiens) (UniProt P17948); conditions: KINOMEscan 353-kinase binding panel, qPCR; FLT1; at 10 µM; hits give low values
[20] = molecular target: Inhibitor of nuclear factor kappa-B kinase subunit epsilon (Homo sapiens) (UniProt Q14164); conditions: KINOMEscan 353-kinase binding panel, qPCR; IKK-epsilon; at 10 µM; hits give low values
[21] = system: EPHB4; conditions: KINOMEscan 353-kinase binding panel, qPCR, at 10 µM, hits give low values
[22] = system: YANK2; conditions: KINOMEscan 353-kinase binding panel, qPCR, at 10 µM, hits give low values
[23] = system: TEC; conditions: KINOMEscan 353-kinase binding panel, qPCR, at 10 µM, hits give low values
[24] = molecular target: RAC-beta serine/threonine-protein kinase (Homo sapiens) (UniProt P31751); conditions: KINOMEscan 353-kinase binding panel, qPCR; AKT2; at 10 µM; hits give low values
RAC-beta serine/threonine-protein kinase (Homo sapiens), sequence (P31751 whole entry, looked up): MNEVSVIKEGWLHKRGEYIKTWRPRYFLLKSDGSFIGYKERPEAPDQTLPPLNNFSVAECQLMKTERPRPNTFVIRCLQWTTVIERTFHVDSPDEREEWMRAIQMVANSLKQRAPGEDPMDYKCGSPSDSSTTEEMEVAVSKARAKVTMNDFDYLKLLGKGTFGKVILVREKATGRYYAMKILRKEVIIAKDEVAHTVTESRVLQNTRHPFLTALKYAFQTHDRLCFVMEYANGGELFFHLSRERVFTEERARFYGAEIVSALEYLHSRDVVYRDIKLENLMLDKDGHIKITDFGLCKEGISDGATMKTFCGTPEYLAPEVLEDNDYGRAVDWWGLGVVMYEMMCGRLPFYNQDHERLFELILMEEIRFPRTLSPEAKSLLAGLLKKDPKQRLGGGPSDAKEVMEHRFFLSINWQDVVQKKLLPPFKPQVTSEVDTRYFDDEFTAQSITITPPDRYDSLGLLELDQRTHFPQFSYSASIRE

[25] = system: DMPK2; conditions: KINOMEscan 353-kinase binding panel, qPCR, at 10 µM, hits give low values
[26] = molecular target: Proto-oncogene tyrosine-protein kinase ROS (Homo sapiens) (UniProt P08922); conditions: KINOMEscan 353-kinase binding panel, qPCR; ROS1; at 10 µM; hits give low values
[27] = system: BMPR1B; conditions: KINOMEscan 353-kinase binding panel, qPCR, at 10 µM, hits give low values
[28] = system: FGR; conditions: KINOMEscan 353-kinase binding panel, qPCR, at 10 µM, hits give low values
[29] = system: LATS1; conditions: KINOMEscan 353-kinase binding panel, qPCR, at 10 µM, hits give low values
[30] = system: FGFR2; conditions: KINOMEscan 353-kinase binding panel, qPCR, at 10 µM, hits give low values
[31] = molecular target: Insulin receptor (Homo sapiens) (UniProt P06213); conditions: KINOMEscan 353-kinase binding panel, qPCR; INSR; at 10 µM; hits give low values
[32] = molecular target: Dual specificity protein kinase CLK3 (Homo sapiens) (UniProt P49761); conditions: KINOMEscan 353-kinase binding panel, qPCR, at 10 µM, hits give low values
Dual specificity protein kinase CLK3 (Homo sapiens), sequence (P49761 whole entry, looked up): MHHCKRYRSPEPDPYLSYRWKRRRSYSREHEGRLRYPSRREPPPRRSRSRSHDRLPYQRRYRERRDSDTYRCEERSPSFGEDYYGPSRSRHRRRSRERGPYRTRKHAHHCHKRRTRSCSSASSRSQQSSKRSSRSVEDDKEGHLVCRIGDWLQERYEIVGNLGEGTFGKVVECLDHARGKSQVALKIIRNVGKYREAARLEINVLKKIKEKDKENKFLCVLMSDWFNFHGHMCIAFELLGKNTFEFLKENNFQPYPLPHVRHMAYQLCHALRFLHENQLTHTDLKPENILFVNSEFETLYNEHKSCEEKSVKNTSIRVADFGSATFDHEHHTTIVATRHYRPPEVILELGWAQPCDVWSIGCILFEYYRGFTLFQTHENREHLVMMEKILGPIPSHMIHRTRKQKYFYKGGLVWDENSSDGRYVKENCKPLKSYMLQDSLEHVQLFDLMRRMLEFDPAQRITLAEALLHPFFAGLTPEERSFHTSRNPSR

[33] = molecular target: Mitogen-activated protein kinase kinase kinase 10 (Homo sapiens) (UniProt Q02779); conditions: KINOMEscan 353-kinase binding panel, qPCR; MLK2; at 10 µM; hits give low values
Mitogen-activated protein kinase kinase kinase 10 (Homo sapiens), sequence (Q02779 whole entry, looked up): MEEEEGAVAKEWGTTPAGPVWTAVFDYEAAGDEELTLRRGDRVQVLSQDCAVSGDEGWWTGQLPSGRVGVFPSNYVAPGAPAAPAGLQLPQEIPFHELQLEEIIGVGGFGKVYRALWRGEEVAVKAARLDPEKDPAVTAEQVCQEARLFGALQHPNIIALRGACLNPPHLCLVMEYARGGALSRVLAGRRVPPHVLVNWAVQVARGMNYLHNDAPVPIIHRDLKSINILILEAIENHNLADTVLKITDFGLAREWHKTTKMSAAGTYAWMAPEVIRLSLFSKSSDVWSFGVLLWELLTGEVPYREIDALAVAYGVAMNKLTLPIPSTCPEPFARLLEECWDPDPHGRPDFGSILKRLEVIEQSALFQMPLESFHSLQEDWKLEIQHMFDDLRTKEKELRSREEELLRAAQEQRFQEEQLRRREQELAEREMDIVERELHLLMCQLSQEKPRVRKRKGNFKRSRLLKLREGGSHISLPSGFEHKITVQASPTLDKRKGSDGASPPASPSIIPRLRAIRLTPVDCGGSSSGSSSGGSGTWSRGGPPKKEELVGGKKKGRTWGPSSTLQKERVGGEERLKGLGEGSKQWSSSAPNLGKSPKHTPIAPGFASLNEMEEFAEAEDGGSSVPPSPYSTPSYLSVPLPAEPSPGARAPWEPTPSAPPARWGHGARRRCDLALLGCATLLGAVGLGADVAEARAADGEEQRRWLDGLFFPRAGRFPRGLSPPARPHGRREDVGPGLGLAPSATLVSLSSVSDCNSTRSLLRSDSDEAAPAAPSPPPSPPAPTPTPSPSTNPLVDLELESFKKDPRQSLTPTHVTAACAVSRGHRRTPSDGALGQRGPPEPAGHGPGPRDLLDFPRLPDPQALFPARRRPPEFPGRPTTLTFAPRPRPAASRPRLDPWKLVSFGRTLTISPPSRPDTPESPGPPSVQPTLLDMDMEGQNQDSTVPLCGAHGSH

[34] = system: MYO3B; conditions: KINOMEscan 353-kinase binding panel, qPCR, at 10 µM, hits give low values
[35] = system: PRKCE; conditions: KINOMEscan 353-kinase binding panel, qPCR, at 10 µM, hits give low values
[36] = system: NEK5; conditions: KINOMEscan 353-kinase binding panel, qPCR, at 10 µM, hits give low values
[37] = molecular target: Tyrosine-protein kinase Fer (Homo sapiens) (UniProt P16591); conditions: KINOMEscan 353-kinase binding panel, qPCR, at 10 µM, hits give low values

Maternal embryonic leucine zipper kinase (Homo sapiens), sequence (Q14680 whole entry, looked up): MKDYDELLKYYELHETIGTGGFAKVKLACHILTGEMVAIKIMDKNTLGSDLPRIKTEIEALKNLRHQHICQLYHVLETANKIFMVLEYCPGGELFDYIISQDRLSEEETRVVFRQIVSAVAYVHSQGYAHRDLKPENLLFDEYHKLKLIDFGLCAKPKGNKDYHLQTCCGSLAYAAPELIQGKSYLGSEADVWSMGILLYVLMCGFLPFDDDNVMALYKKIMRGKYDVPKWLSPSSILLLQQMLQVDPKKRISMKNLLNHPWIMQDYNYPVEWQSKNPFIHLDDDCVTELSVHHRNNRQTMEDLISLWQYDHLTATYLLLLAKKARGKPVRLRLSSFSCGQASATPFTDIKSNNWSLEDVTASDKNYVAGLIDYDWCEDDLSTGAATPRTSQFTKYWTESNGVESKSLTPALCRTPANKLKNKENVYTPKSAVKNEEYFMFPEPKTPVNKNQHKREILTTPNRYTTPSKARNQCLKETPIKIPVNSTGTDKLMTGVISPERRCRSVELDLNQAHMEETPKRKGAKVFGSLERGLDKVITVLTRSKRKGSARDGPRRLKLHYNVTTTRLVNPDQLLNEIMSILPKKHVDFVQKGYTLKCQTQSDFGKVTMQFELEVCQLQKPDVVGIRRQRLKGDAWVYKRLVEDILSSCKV

percent of control binding [1]: 93% (inactive)
percent of control binding [2]: 90% (inactive)
percent of control binding [3]: 93% (inactive)
percent of control binding [4]: 80% (inactive)
percent of control binding [5]: 64% (inactive)
percent of control binding [6]: 80% (inactive)
percent of control binding [7]: 100% (inactive)
percent of control binding [8]: 92% (inactive)
percent of control binding [9]: 78% (inactive)
percent of control binding [10]: 80% (inactive)
percent of control binding [11]: 100% (inactive)
percent of control binding [12]: 70% (inactive)
percent of control binding [13]: 94% (inactive)
percent of control binding [14]: 100% (inactive)
percent of control binding [15]: 100% (inactive)
percent of control binding [16]: 89% (inactive)
percent of control binding [17]: 100% (inactive)
percent of control binding [18]: 86% (inactive)
percent of control binding [19]: 100% (inactive)
percent of control binding [20]: 86% (inactive)
percent of control binding [21]: 98% (inactive)
percent of control binding [22]: 100% (inactive)
percent of control binding [23]: 98% (inactive)
percent of control binding [24]: 85% (inactive)
percent of control binding [25]: 72% (inactive)
percent of control binding [26]: 100% (inactive)
percent of control binding [27]: 100% (inactive)
percent of control binding [28]: 100% (inactive)
percent of control binding [29]: 94% (inactive)
percent of control binding [30]: 100% (inactive)
percent of control binding [31]: 94% (inactive)
percent of control binding [32]: 100% (inactive)
percent of control binding [33]: 100% (inactive)
percent of control binding [34]: 65% (inactive)
percent of control binding [35]: 64% (inactive)
percent of control binding [36]: 91% (inactive)
percent of control binding [37]: 100% (inactive)
SMILES: Cc1cc2nc(NCCCO)n(CC(=O)c3cc(C(C)(C)C)c(O)c(C(C)(C)C)c3)c2cc1C
